Source: US4613355A, “Antibiotic having herbicidal activity” (Satoshi Omura, priority 1983, dated 1986)
Counter-ions that a name gives are not always drawn.

Assays:
Format in all cases: in vivo
Digitaria adscendens [1] = experiment: Pre-emergence test (Example 6); conditions: 10 days
Description: Upland soil was put in a pot of 10 cm diameter and the seeds of Digitaria adscendens were sown in the soil surface at a depth of 1 cm. After compacting the soil surface gently, the soil was sprayed evenly with solutions of Phosalacine sodium salt dissolved at different concentrations in water (each 5 ml). 10 days later, the number of emerged seedlings was counted and the percentage inhibition of emergence was evaluated by comparison with untreated plots. For comparison, a similar test was carried out using glyphosate (monosodium salt) instead of Phosalacine salt. The results shown in the following Table indicate that the pre-emergence effect of Phosalacine was better than that of glyphosate.

Digitaria adscendens [2] = experiment: Foliage treatment of seedlings in pots (Example 7); conditions: 10 days after foliage treatment, 1000 liter per hectare
Description: Upland soil was put in a pot of 10 cm diameter and the seeds of Digitaria adscendens were sown in the soil at a depth of 1 cm from the surface. When the height of the seedlings was about 10 cm, aqueous solutions of the test compounds as shown in the following Table were uniformly sprayed on the plants at a rate of 1.2 ml per plant, equivalent to 1000 liter per hectare. 10 days after the foliage treatment, damage to plants was visually assessed on a scale of from 0 to 10, where 0 indicates no effect and 10 indicates complete kill.

Rumex obtusifolius = experiment: Foliage treatment with different salts (Example 11); design: key: 0 indicates no effect; 5 indicates complete kill; conditions: Rumex obtusifolius (Plant No. 14), 1000 liter per hectare
Description: Aqueous solutions containing different salts of Phosalacine at different concentrations as active ingredients and 0.1% of octylphenylpolyoxy ethanol as surfactant were applied at a rate of 1000 liter per hectare to Rumex obtusifolius (Plant No. 14) at a certain stage of growth. 21 days after foliage treatment, damage to the plant was visually assessed on a scale of 0 to 5 as hereinbefore described. The salts used were prepared by the methods described in the reference mentioned above.

## CC(C)C[C@H](NC(=O)[C@H](C)NC(=O)[C@@H](N)CCP(C)(=O)O)C(=O)O [Phosalacine (Na salt)]
Digitaria adscendens [1]; 500 g/ha
  Percent inhibition of emergence: 80%
Digitaria adscendens [1]; 1000 g/ha
  Percent inhibition of emergence: 100%
Digitaria adscendens [1]; 2500 g/ha
  Percent inhibition of emergence: 100%
Digitaria adscendens [2]; Concentration 0.01 ppm
  damage to plants, scale 0 to 10: 3 (30)
Digitaria adscendens [2]; Concentration 0.03 ppm
  damage to plants, scale 0 to 10: 10 (100)
Digitaria adscendens [2]; Concentration 0.1 ppm
  damage to plants, scale 0 to 10: 10 (100)
Rumex obtusifolius; 0.05%
  Damage to plants after 21 days, scale 0 to 5: 3
Rumex obtusifolius; 0.1%
  Damage to plants after 21 days, scale 0 to 5: 5
